Data from patent US8772499B2, “TRPV3 modulators” (AbbVie Inc., priority 2011, dated 2014).
Where two headings read alike, the source gives them in different places.

Experiments:
[1] = In vitro rat microsomal stability assay; type: in vitro ADME, rat (Sprague-Dawley); conditions: Sprague-Dawley, rat, microsomes, 0.5 h, 0.5 μM, pH 7.4
Procedure: (§1) Test compounds were evaluated for metabolic stability in an in vitro rat microsomal stability assay using rat liver microsomes (Sprague-Dawley, from BD Biosciences) and/or an in vitro human microsomal stability assay using human liver microsomes (Xenotech). […] Incubations were carried out at 37° C. with a final incubation volume of 135 μL. […] A 1.5 μL aliquot of reduced nicotine adenine disphosphonucleotide (NADPH) (Chem-Impex Int'L Inc., Lot 12532024) was also added to the time-zero plates.

[2] = In vitro human microsomal stability assay; type: in vitro ADME; conditions: human, microsomes, 0.5 h, 0.5 μM, pH 7.4
Procedure: as §1

human TRPV3 = molecular target: T1, human TRPV3 (Homo sapiens, UniProt Q8NET8); assay: In vitro antagonism of recombinant human TRPV3 activation (FLIPR Tetra calcium assay); type: cell-based; conditions: HEK293 cells stably expressing human TRPV3, agonist 2-APB at 80 μM
T1 construct: expressed in transfected cells
T1 sequence (Q8NET8 1-790): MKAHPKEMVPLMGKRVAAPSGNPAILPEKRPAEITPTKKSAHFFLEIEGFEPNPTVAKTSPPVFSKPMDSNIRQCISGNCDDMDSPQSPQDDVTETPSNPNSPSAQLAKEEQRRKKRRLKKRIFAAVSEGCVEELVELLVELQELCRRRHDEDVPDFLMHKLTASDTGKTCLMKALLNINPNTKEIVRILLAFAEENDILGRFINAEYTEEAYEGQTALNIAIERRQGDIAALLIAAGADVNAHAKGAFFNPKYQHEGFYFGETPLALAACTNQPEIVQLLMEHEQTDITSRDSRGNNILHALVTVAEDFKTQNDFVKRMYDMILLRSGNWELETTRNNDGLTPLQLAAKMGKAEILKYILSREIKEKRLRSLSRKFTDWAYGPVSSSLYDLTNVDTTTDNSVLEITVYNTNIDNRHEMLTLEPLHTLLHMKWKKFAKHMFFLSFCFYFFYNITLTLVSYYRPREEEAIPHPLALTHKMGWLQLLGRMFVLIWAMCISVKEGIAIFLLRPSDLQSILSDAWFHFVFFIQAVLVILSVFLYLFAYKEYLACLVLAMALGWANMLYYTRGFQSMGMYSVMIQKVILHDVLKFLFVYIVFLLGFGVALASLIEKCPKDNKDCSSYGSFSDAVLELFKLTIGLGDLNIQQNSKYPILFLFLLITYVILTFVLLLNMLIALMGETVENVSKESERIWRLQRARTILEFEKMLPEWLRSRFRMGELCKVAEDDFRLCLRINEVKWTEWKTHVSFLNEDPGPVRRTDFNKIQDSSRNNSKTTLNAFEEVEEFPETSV
Method in brief: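 Calcium flux read over a 10 min run: compound added at 10 s to Calcium-4-loaded human TRPV3-HEK293 cells, agonist 2-APB (80 μM, its EC80) after 3 min. IC50 derived from peak-minus-baseline signal as percentage of uninhibited 2-APB response, typically averaged over at least two runs.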

[3] = actual measured value shown parenthetically, in most cases average of at least two runs, read-out: IC50
[4] = reported range, read-out: IC50 (range class)

OC(c1ccccn1)C1(c2nc3ccc(Cl)cc3s2)CCC1 (centres unmarked) [Example 292, [1-(6-chloro-1,3-benzothiazol-2-yl)cyclobutyl](pyridin-2-yl)methanol]
RAT MICROSOMAL STABILITY (% REMAINING AFTER 30 MINUTES) [1]: 5.4% | HUMAN MICROSOMAL STABILITY (% REMAINING AFTER 30 MINUTES) [2]: 19% | IC50 (human TRPV3; [3]): 0.56 µM

O=C1CC(c2ccnc(C(F)(F)F)c2)(C(O)c2ccccn2)C1 (centres unmarked) [Example 298, 3-[hydroxy(pyridin-2-yl)methyl]-3-[2-(trifluoromethyl)pyridin-4-yl]-cyclobutanone]
RAT MICROSOMAL STABILITY (% REMAINING AFTER 30 MINUTES) [1]: 59% | HUMAN MICROSOMAL STABILITY (% REMAINING AFTER 30 MINUTES) [2]: 80% | IC50 (human TRPV3; [3]): > 20 µM | IC50 (human TRPV3; [4]): > 20 µM

O=C1CC(c2cccc(C(F)(F)F)c2)(C(O)c2ccccn2)C1 (centres unmarked) [Example 245, 3-[hydroxy(pyridin-2-yl)methyl]-3-[3-(trifluoromethyl)phenyl]-cyclobutanone]
RAT MICROSOMAL STABILITY (% REMAINING AFTER 30 MINUTES) [1]: 72% | HUMAN MICROSOMAL STABILITY (% REMAINING AFTER 30 MINUTES) [2]: 57% | IC50 (human TRPV3; [3]): 3.65 µM

O[C@H](c1ncccn1)C1(c2ccc(C(F)(F)F)cc2)CCC1 [Example 41, (S)-pyrimidin-2-yl{1-[4-(trifluoromethyl)phenyl]cyclobutyl}methanol]
RAT MICROSOMAL STABILITY (% REMAINING AFTER 30 MINUTES) [1]: 21% | HUMAN MICROSOMAL STABILITY (% REMAINING AFTER 30 MINUTES) [2]: 54% | IC50 (human TRPV3; [3]): > 10 µM

CC1(O)CC(c2cc(C(F)(F)F)ccn2)(C(O)c2ccccn2)C1 (centres unmarked) [Example 286]
RAT MICROSOMAL STABILITY (% REMAINING AFTER 30 MINUTES) [1]: 70% | HUMAN MICROSOMAL STABILITY (% REMAINING AFTER 30 MINUTES) [2]: >85% | IC50 (human TRPV3; [3]): 1.47 µM

OC1CC(c2cncc(C(F)(F)F)c2)(C(O)c2ccccn2)C1 [Example 303, cis-3-[(S)-hydroxy(pyridin-2-yl)methyl]-3-[5-(trifluoromethyl)pyridin-3-yl]cyclobutanol]
RAT MICROSOMAL STABILITY (% REMAINING AFTER 30 MINUTES) [1]: 32% | HUMAN MICROSOMAL STABILITY (% REMAINING AFTER 30 MINUTES) [2]: 80% | IC50 (human TRPV3; [3]): 0.53 µM

OC(c1ccccn1)C1(c2cccnc2)CCC1 (centres unmarked) [Example 20, pyridin-2-yl(1-pyridin-3-ylcyclobutyl)methanol]
RAT MICROSOMAL STABILITY (% REMAINING AFTER 30 MINUTES) [1]: 81% | HUMAN MICROSOMAL STABILITY (% REMAINING AFTER 30 MINUTES) [2]: 80% | IC50 (human TRPV3; [3]): > 20 µM | IC50 (human TRPV3; [4]): > 20 µM

OC(c1ccccn1)C1(C2CCOc3ccccc32)CCC1 (centres unmarked) [Example 57, [1-(3,4-dihydro-2H-chromen-4-yl)cyclobutyl](pyridin-2-yl)methanol]
RAT MICROSOMAL STABILITY (% REMAINING AFTER 30 MINUTES) [1]: 10% | HUMAN MICROSOMAL STABILITY (% REMAINING AFTER 30 MINUTES) [2]: 16% | IC50 (human TRPV3; [3]): 9.29 µM

OC(C1CCc2cccnc21)C1(c2ccc(C(F)(F)F)cc2)CCC1 (stereo not drawn) [Example 173, (anti)-6,7-dihydro-5H-cyclopenta[b]pyridin-7-yl{1-[4-(trifluoromethyl)-phenyl]cyclobutyl}methanol]
RAT MICROSOMAL STABILITY (% REMAINING AFTER 30 MINUTES) [1]: <0.01% | HUMAN MICROSOMAL STABILITY (% REMAINING AFTER 30 MINUTES) [2]: 45% | IC50 (human TRPV3; [3]): > 20 µM | IC50 (human TRPV3; [4]): > 20 µM

COc1ccnc(C(O)C2(c3ccc(Cl)c(Cl)c3)CCC2)c1 (centres unmarked) [Example 289, [1-(3,4-dichlorophenyl)cyclobutyl](4-methoxypyridin-2-yl)methanol]
RAT MICROSOMAL STABILITY (% REMAINING AFTER 30 MINUTES) [1]: <0.01% | HUMAN MICROSOMAL STABILITY (% REMAINING AFTER 30 MINUTES) [2]: 4.2% | IC50 (human TRPV3; [3]): > 20 µM | IC50 (human TRPV3; [4]): > 20 µM

OC(c1ccccn1)C1(c2cccc(OC(F)(F)F)c2)CC2(C1)OCCO2 (centres unmarked) [Example 235, pyridin-2-yl{2-[3-(trifluoromethoxy)phenyl]-5,8-dioxaspiro[3.4]oct-2-yl}-methanol]
RAT MICROSOMAL STABILITY (% REMAINING AFTER 30 MINUTES) [1]: <0.01% | HUMAN MICROSOMAL STABILITY (% REMAINING AFTER 30 MINUTES) [2]: 20% | IC50 (human TRPV3; [3]): 3.32 µM

OC(c1ccccn1)C1(c2cc(C(F)(F)F)ccn2)CCC1 (centres unmarked) [Example 116, pyridin-2-yl{1-[4-(trifluoromethyl)pyridin-2-yl]cyclobutyl}methanol]
RAT MICROSOMAL STABILITY (% REMAINING AFTER 30 MINUTES) [1]: 25% | HUMAN MICROSOMAL STABILITY (% REMAINING AFTER 30 MINUTES) [2]: 37% | IC50 (human TRPV3; [3]): 0.75 µM

Cc1cccc(C2(C(O)c3ccccn3)CCC2)c1 (centres unmarked) [Example 8, [1-(3-methylphenyl)cyclobutyl](pyridin-2-yl)methanol]
RAT MICROSOMAL STABILITY (% REMAINING AFTER 30 MINUTES) [1]: 0.73% | HUMAN MICROSOMAL STABILITY (% REMAINING AFTER 30 MINUTES) [2]: 0.13% | IC50 (human TRPV3; [3]): 0.38 µM

OC(c1ccccn1)C1(c2ccc(C(F)(F)F)nc2)CCC1 (centres unmarked) [Example 85, pyridin-2-yl{1-[6-(trifluoromethyl)pyridin-3-yl]cyclobutyl}methanol]
RAT MICROSOMAL STABILITY (% REMAINING AFTER 30 MINUTES) [1]: 76% | HUMAN MICROSOMAL STABILITY (% REMAINING AFTER 30 MINUTES) [2]: 82% | IC50 (human TRPV3; [3]): 5.61 µM

O=C1CC(c2ccc(C(F)(F)F)cc2)([C@H](O)c2ccccn2)C1 (single isomer, unassigned) [Example 164]
RAT MICROSOMAL STABILITY (% REMAINING AFTER 30 MINUTES) [1]: 81% | HUMAN MICROSOMAL STABILITY (% REMAINING AFTER 30 MINUTES) [2]: 71% | IC50 (human TRPV3; [3]): 2.61 µM

OC(c1ccccn1)C1(c2ccccc2C(F)(F)F)CCC1 (centres unmarked) [Example 5, pyridin-2-yl{1-[2-(trifluoromethyl)phenyl]cyclobutyl}methanol]
RAT MICROSOMAL STABILITY (% REMAINING AFTER 30 MINUTES) [1]: 0.06% | HUMAN MICROSOMAL STABILITY (% REMAINING AFTER 30 MINUTES) [2]: 0.27% | IC50 (human TRPV3; [3]): 5.22 µM

OC(c1ccccn1)C1(c2ccccc2OC(F)(F)F)CCCO1 (single isomer, unassigned) [Example 96, (anti)-pyridin-2-yl{2-[2-(trifluoromethoxy)phenyl]tetrahydrofuran-2-yl}-methanol]
RAT MICROSOMAL STABILITY (% REMAINING AFTER 30 MINUTES) [1]: 0.15% | HUMAN MICROSOMAL STABILITY (% REMAINING AFTER 30 MINUTES) [2]: 0.68% | IC50 (human TRPV3; [3]): 1.22 µM

OC(c1ccccn1)C1(c2ccc(C(F)(F)F)cn2)CCC1 (centres unmarked) [Example 115, pyridin-2-yl{1-[5-(trifluoromethyl)pyridin-2-yl]cyclobutyl}methanol]
RAT MICROSOMAL STABILITY (% REMAINING AFTER 30 MINUTES) [1]: 81% | HUMAN MICROSOMAL STABILITY (% REMAINING AFTER 30 MINUTES) [2]: >85% | IC50 (human TRPV3; [3]): 19.4 µM

OC(C1CCc2cccnc21)C1(c2ccccc2C(F)(F)F)CCC1 (stereo not drawn) [Example 198, (syn)-6,7-dihydro-5H-cyclopenta[b]pyridin-7-yl{1-[2-(trifluoromethyl)-phenyl]cyclobutyl}methanol]
RAT MICROSOMAL STABILITY (% REMAINING AFTER 30 MINUTES) [1]: <0.01% | HUMAN MICROSOMAL STABILITY (% REMAINING AFTER 30 MINUTES) [2]: 0.05% | IC50 (human TRPV3; [3]): > 20 µM | IC50 (human TRPV3; [4]): > 20 µM

OC(c1ccccn1)C1(c2ccc(Oc3ccccc3)cc2)CCC1 (centres unmarked) [Example 24, [1-(4-phenoxyphenyl)cyclobutyl](pyridin-2-yl)methanol]
RAT MICROSOMAL STABILITY (% REMAINING AFTER 30 MINUTES) [1]: 17% | HUMAN MICROSOMAL STABILITY (% REMAINING AFTER 30 MINUTES) [2]: 20% | IC50 (human TRPV3; [3]): 4.7 µM

OC1CC(c2ccc(Cl)c(Cl)c2)(C(O)c2ncccn2)C1 (single isomer, unassigned) [Example 312]
RAT MICROSOMAL STABILITY (% REMAINING AFTER 30 MINUTES) [1]: >85% | HUMAN MICROSOMAL STABILITY (% REMAINING AFTER 30 MINUTES) [2]: >85% | IC50 (human TRPV3; [3]): 1.96 µM

O=C1CC(c2cc(C(F)(F)F)ccn2)([C@@H](O)c2ccccn2)C1 [Example 278, 3-[(R)-hydroxy(pyridin-2-yl)methyl]-3-[4-(trifluoromethyl)pyridin-2-yl]-cyclobutanone]
RAT MICROSOMAL STABILITY (% REMAINING AFTER 30 MINUTES) [1]: >85% | HUMAN MICROSOMAL STABILITY (% REMAINING AFTER 30 MINUTES) [2]: 83% | IC50 (human TRPV3; [3]): 6.6 µM

OC(c1ccccn1)C1(c2ccc(OC(F)(F)F)cc2)CC(F)(F)C1 (centres unmarked) [Example 112, {3,3-difluoro-1-[4-(trifluoromethoxy)phenyl]cyclobutyl}(pyridin-2-yl)-methanol]
RAT MICROSOMAL STABILITY (% REMAINING AFTER 30 MINUTES) [1]: 75% | HUMAN MICROSOMAL STABILITY (% REMAINING AFTER 30 MINUTES) [2]: 75% | IC50 (human TRPV3; [3]): 0.3 µM
